Reference: patent publication US9687431B2, “Use of isoleucine N-hexadecanoyl as a “volumizing” and/or “plumping” agent for human skin” (SOCIETE D'EXPLOITATION DE PRODUITS POUR LES INDUSTRIES …, priority 2009, dated 2017)
Marks after values point to notes of the source that are not given here.

What was measured:
Assay type in all cases: cell-based
[1] = test system: normal human preadipocytes; assay: Differentiation of normal human preadipocytes in depleted differentiation medium (Bodipy lipid droplet labeling, image analysis); conditions: 15 days
Procedure: Normal human preadipocytes resulting from abdominal surgical waste from a donor were cultured in monolayer until confluence in the presence of a culture medium comprising PBM-2 (Preadipocyte Basal Medium-2) supplied by the company Lonza, an amount of 10% by volume of FBS (Fetal Bovine Serum) for 100% of the volume of the culture medium, L-glutamine and gentamicin.
Their differentiation into adipocytes was induced by adding a “depleted” differentiation medium comprising a mixture of insulin, dexamethasone, IBMX (isobutyl methyl xanthine) and indomethacin, and used at a dilution rate of 1/10th with respect to a “standard” differentiation medium.
A differentiation phase is also carried out on human preadipocytes as described above and cultured in monolayers as described above, but in the presence of a “standard” differentiation medium, namely a nondiluted mixture of insulin, dexamethasone, IBMX (IsoButyl Methyl Xanthine) and indomethacin, so as to obtain a “control differentiated in standard medium”.
Once the maturity of the preadipocytes was reached, namely after 15 days following the induction described above, the cultures were rinsed with a PBS (Phosphate Buffered Saline) buffer and the intracytoplasmic lipid vesicles were labeled using a specific viable fluorescent probe, Bodipy (500 μg/ml). The nuclei of the differentiated preadipocytes were also labeled using a Hoechst reagent (bisbenzimide), which is also fluorescent, at a concentration of 2 μg/ml, sold by the company Sigma.
Three photographs per well were taken using a Zeiss Axiovert™ 25 inverted epifluorescence microscope fitted with an ×20 objective.
For each test of products tested, including controls, the images obtained with the inverted epifluorescence microscope are analyzed using the Lucia software, allowing quantification of the Bodipy fluorescent label, in order to carry out: • a measurement of the lipid droplet surface area (Sd), • a measurement of the number of differentiated cells (Nc), and • a measurement of the number of total cell nuclei (Nnc).
For each test, the level of adipocyte differentiation (D) is then calculated by relating the lipid droplet surface area to the number of total nuclei according to the following formula: (D)=(lipid droplet surface area)/(number of total cell nuclei).
The following will thus be calculated: • the level of adipocyte differentiation of the control differentiated in depleted medium (subsequently denoted Ddm); • the level of adipocyte differentiation of the control differentiated in standard or complete medium (subsequently denoted Dcm); • the level of adipocyte differentiation of the products tested (N-hexadecanoyl isoleucine, hexadecanoic acid, isoleucine, hexadecanoic acid/isoleucine mixture in a ratio by weight of 65/35) (subsequently denoted Dpt).
For each product tested, the following are then calculated:
a) the percentage restoration of adipocyte differentiation (subsequently denoted RAD) according to the following formula: RAD=[(Dpt−Ddm)/(Dcm−Ddm)]×100
b) the adipocyte surface area (AS) according to the following formula: (AS)=[(lipid droplet surface area Sd)/(number of differentiated cells Nc)]×100
c) the percentage increase in adipocyte surface area (subsequently denoted IAS) relative to the control treated with depleted medium according to the formula: IAS=[adipocyte surface area of the product (ASpt)/adipocyte surface area of the control treated with the depleted medium (ASdm)]×100.
A statistical analysis is then carried out on the data (D) and (AS) using a two-sided Student's test assuming unequal variances. Thus, the population of each of the experimental conditions tested for the parameters (D) and (AS) is compared with the population of the condition of differentiation in the presence of the depleted differentiation medium. An error threshold (p) is set at 5%.

[2] = test system: human preadipocytes of passage R7; assay: Adipocyte phenotype restoration in artificially aged (passage R7) preadipocytes, protocol 3; conditions: protocol 3: product present during culture and differentiation; 10 μg/ml on a dry extract basis
From the text: (§1) The term “passage” or “subculturing” or “amplification” denotes here the operation, known to those skilled in the art, consisting in amplifying the cells in question successively by means of culture cycles. Thus, the term “preadipocytes of passage RO” denotes the preadipocytes which have undergone no passage operation as defined above. The term “preadipocytes of passage R1” denotes the preadipocytes which have undergone a single passage operation as defined above. The term “preadipocytes of passage R7” denotes the preadipocytes which have undergone 7 successive passage operations under identical operating conditions.
(§2) • i) Human preadipocytes of passage R1 were cultured in monolayer for 5 days until confluence. […]
The effect of the N-hexadecanoyl isoleucine on human preadipocytes of passage R7 is evaluated according to a variant of the procedure of protocol 2, the first step of which consists in culturing the human preadipocytes of passage R7 in a monolayer for 5 days until confluence in the presence of N-hexadecanoyl isoleucine. […]

[3] = test system: human preadipocytes of passage R7; assay: Adipocyte phenotype restoration in artificially aged (passage R7) preadipocytes, protocol 2; conditions: protocol 2: product present during 5-day culture until confluence; 10 μg/ml on a dry extract basis
From the text: as §1, §2
The steps of sections a) and b) of protocol 1 are carried out using human preadipocytes of passage R1 and human preadipocytes of passage R7 so as to obtain a “young” control and an “aged” control and the associated optical densities ODR1 and ODR7. The effect of the N-hexadecanoyl isoleucine on human preadipocytes of passage R7 is evaluated according to a variant of the procedure of protocol 1, the first step of which consists in culturing the human preadipocytes of passage R7 in a monolayer for 5 days until confluence in the presence of N-hexadecanoyl isoleucine. […]

[4] = test system: human preadipocytes of passage R7; assay: Adipocyte phenotype restoration in artificially aged (passage R7) preadipocytes, protocol 1 (Oil-Red-O, OD 540 nm); conditions: protocol 1: product present during differentiation; 10 μg/ml on a dry extract basis
From the text: as §1, §2
The optical density thus measured for the young control is denoted “ODR1”. […]

[5] = 1.7 μg/ml on a dry extract basis

In the case of CCCCCCCCCCCCCCCC(=O)O [Hexadecanoic acid, hexadecanoic acid], the “IAS (percentage increase in adipocyte surface area relative to control in depleted medium = 100%)” value ([1]; 3.3 μg/ml) is reported as 41%*, the “RAD (percentage restoration of adipocyte differentiation)” value ([1]; 3.3 μg/ml) is reported as less than 10% and the “IAS (percentage increase in adipocyte surface area relative to control in depleted medium = 100%)” value ([1]; 6.5 μg/ml) is reported as 62%. For the same molecule, the “RAD (percentage restoration of adipocyte differentiation)” value ([1]; 6.5 μg/ml) was less than 10%.
In the case of CC[C@H](C)[C@H](N)C(=O)O [Isoleucine, isoleucine], the “IAS (percentage increase in adipocyte surface area relative to control in depleted medium = 100%)” value [1, 5] is reported as 57%, the “RAD (percentage restoration of adipocyte differentiation)” value [1, 5] is reported as less than 10% and the “IAS (percentage increase in adipocyte surface area relative to control in depleted medium = 100%)” value ([1]; 3.3 μg/ml) is reported as 117%. The “RAD (percentage restoration of adipocyte differentiation)” value ([1]; 3.3 μg/ml) was less than 10%.
CCCCCCCCCCCCCCCC(=O)N[C@H](C(=O)O)[C@@H](C)CC [N-hexadecanoyl isoleucine] was tested, and the “PRR (phenotype restoration rate)” value [2] was 30%*, the “PRR (phenotype restoration rate)” value [3] was 17%* and the “PRR (phenotype restoration rate)” value [4] was 16%*.
